# Measurements published in the supplement of paper PMC11061612.
# Key:
# Experiment in all cases: combination Emax (second highest fraction inhibited in the dose matrix, 72 h); higher = more inhibition; extreme values may be limits of the assay
# NCI-H2731 (Mesothelioma) = tested on: NCI-H2731 (Mesothelioma)
# How it was run: (§1)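 Cell lines grown in DMEM/F12 or RPMI with 10% FBS were plated in 1536-well plates and held 24 hours at 37°C, 5% CO2 before 72 hours of exposure to two-drug dose matrices, with DMSO typically at 0.2%. CellTiter-Glo 2.0 luminescence gave viability, which was converted to inhibition. Vehicle wells were set to 0 and blank wells to 1. Combination Emax is the second-highest inhibition in the matrix, and Bliss excess is the observed combination effect minus the expected EA + EB − EA·EB, where EA and EB are the single-agent effects.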
# [1] = tested on: H9 (T-Cell Non-Hodgkin's Lymphoma)
# How it was run: as §1
# [2] = tested on: RPMI-8226 (Plasma Cell Myeloma)
# How it was run: as §1
# [3] = tested on: KP-3 (Pancreatic Carcinoma)
# How it was run: as §1
# [4] = tested on: SNU-398 (Hepatocellular Carcinoma)
# How it was run: as §1
# [5] = tested on: SK-GT-2 (Gastric Carcinoma)
# How it was run: as §1
# [6] = tested on: HCC1187 (Breast Carcinoma)
# How it was run: as §1
# [7] = tested on: NCI-H526 (Small Cell Lung Carcinoma)
# How it was run: as §1
# [8] = tested on: COR-L279 (Small Cell Lung Carcinoma)
# How it was run: as §1
# [9] = tested on: IM-95 (Gastric Carcinoma)
# How it was run: as §1
# [10] = tested on: VMRC-RCZ (Kidney Carcinoma)
# How it was run: as §1
# [11] = tested on: MOLM-13 (Acute Myeloid Leukemia)
# How it was run: as §1
# [12] = tested on: MN-60 (B-Lymphoblastic Leukemia)
# How it was run: as §1
# [13] = tested on: DAN-G (Pancreatic Carcinoma)
# How it was run: as §1
# [14] = tested on: KY821 (Acute Myeloid Leukemia)
# How it was run: as §1
# [15] = tested on: DMS-114 (Small Cell Lung Carcinoma)
# How it was run: as §1
# [16] = tested on: SUP-B15 (B-Lymphoblastic Leukemia)
# How it was run: as §1
# [17] = tested on: NCI-H661 (Non-Small Cell Lung Carcinoma)
# How it was run: as §1
# [18] = tested on: ESO51 (Esophageal Adenocarcinoma)
# How it was run: as §1
# [19] = tested on: PC-3 (Prostate Carcinoma)
# How it was run: as §1
Structure (SMILES),combination Emax (NCI-H2731 (Mesothelioma)),combination Emax [1],combination Emax [2],combination Emax [3],combination Emax [4],combination Emax [5],combination Emax [6],combination Emax [7],combination Emax [8],combination Emax [9],combination Emax [10],combination Emax [11],combination Emax [12],combination Emax [13],combination Emax [14],combination Emax [15],combination Emax [16],combination Emax [17],combination Emax [18],combination Emax [19]
"COc1cc2ncnc(Nc3ccc(F)c(Cl)c3)c2cc1OCCCN1CCOCC1 [Gefitinib] + CC(C)n1c(=O)n(C)c2cnc3cc(F)c(-c4ccc(OCCCN5CCCCC5)nc4)cc3c21 [AZD1390] (first compound max 10 µM, 7x7, partner max 0.3 µM)",0.0304,0.47,0.0829,0.0907,0.0256,0.768,0.108,0.12,0.395,0.171,0.11,0.776,0.0314,0.0121,0.416,0.255,0.0538,0.0361,0.188,0.0447
"CS(=O)(=O)CCNCc1ccc(-c2ccc3ncnc(Nc4ccc(OCc5cccc(F)c5)c(Cl)c4)c3c2)o1 [Lapatinib] + C[C@@H](Oc1cc(-c2cnn(C3CCNCC3)c2)cnc1N)c1c(Cl)ccc(F)c1Cl [Crizotinib] (first compound max 10 µM, 7x7, partner max 10 µM)",0.921,0.983,0.679,0.557,0.77,0.995,0.715,0.732,0.953,0.854,0.365,0.996,0.834,0.991,0.986,0.893,0.963,0.703,0.997,0.494
"CC(=O)c1c(C)c2cnc(Nc3ccc(N4CCNCC4)cn3)nc2n(C2CCCC2)c1=O [Palbociclib] + CC1(C)CCC(CN2CCN(c3ccc(C(=O)NS(=O)(=O)c4ccc(NCC5CCOCC5)c([N+](=O)[O-])c4)c(Oc4cnc5[nH]ccc5c4)c3)CC2)=C(c2ccc(Cl)cc2)C1 [Venetoclax] (first compound max 10 µM, 7x7, partner max 1 µM)",0.211,0.626,0.387,0.0792,0.326,0.0922,0.198,0.71,0.375,0.105,0.105,1,0.422,0.178,1,0.209,0.989,0.0364,0.288,0.1
"CC(=O)c1c(C)c2cnc(Nc3ccc(N4CCNCC4)cn3)nc2n(C2CCCC2)c1=O [Palbociclib] + Cc1c2c(nn1C)CSCc1cc(n(C)n1)CSc1cc(c3ccccc3c1)OCCCc1c(C(=O)O)n(C)c3c-2c(Cl)ccc13 [AZD5991] (first compound max 10 µM, 7x7, partner max 1 µM)",0.214,0.742,0.939,0.221,0.944,0.168,1,0.391,0.627,0.33,0.194,1,0.443,0.222,1,0.49,0.986,0.631,0.218,0.169
"CC(=O)c1c(C)c2cnc(Nc3ccc(N4CCNCC4)cn3)nc2n(C2CCCC2)c1=O [Palbociclib] + Cn1cnc2c(F)c(Nc3ccc(Br)cc3Cl)c(C(=O)NOCCO)cc21 [Selumetinib] (first compound max 10 µM, 7x7, partner max 10 µM)",0.191,0.956,0.547,0.244,0.376,0.165,0.129,0.0977,0.37,0.315,0.115,0.982,0.402,0.43,0.861,0.264,0.661,0.119,0.601,0.145
"COc1cccc(OCCCN)c1-c1cc(Nc2cnc(C#N)cn2)n[nH]1 [Prexasertib] + C=CCn1c(=O)c2cnc(Nc3ccc(N4CCN(C)CC4)cc3)nc2n1-c1cccc(C(C)(C)O)n1 [AZD1775] (first compound max 1 µM, partner max 1 µM)",0.544,1,1,0.472,0.514,0.899,0.819,0.937,0.881,0.691,0.388,1,0.653,0.801,1,0.385,0.978,0.788,0.757,0.442
"COc1cccc(OCCCN)c1-c1cc(Nc2cnc(C#N)cn2)n[nH]1 [Prexasertib] + CCc1c2c(nc3ccc(O)cc13)-c1cc3c(c(=O)n1C2)COC(=O)[C@]3(O)CC [SN-38] (first compound max 1 µM, 7x7, partner max 0.3 µM)",0.663,1,1,0.57,0.725,0.975,0.866,1,1,0.602,0.625,1,0.825,0.933,1,0.716,1,0.889,0.879,0.703
"COc1cccc(OCCCN)c1-c1cc(Nc2cnc(C#N)cn2)n[nH]1 [Prexasertib] + CN(C)CCCOc1ccc(-c2ccc3ncc4c(c3c2)n(C2CCOCC2)c(=O)n4C)cn1 [AZD0156] (first compound max 1 µM, 7x7, partner max 1 µM)",0.406,1,1,0.513,0.436,0.823,0.645,0.895,0.809,0.458,0.342,1,0.546,0.824,1,0.408,0.959,0.744,0.788,0.272
"COc1cccc(OCCCN)c1-c1cc(Nc2cnc(C#N)cn2)n[nH]1 [Prexasertib] + C[C@@H]1COCCN1C2=NC(=NC(=C2)C3(CC3)[S@](=N)(=O)C)C4=C5C=CNC5=NC=C4 [AZD6738] (first compound max 1 µM, 7x7, partner max 10 µM)",0.395,1,1,0.456,0.437,0.81,0.614,0.92,0.835,0.267,0.398,1,0.562,0.769,1,0.514,0.962,0.744,0.779,0.431
"COc1cccc(OCCCN)c1-c1cc(Nc2cnc(C#N)cn2)n[nH]1 [Prexasertib] + Cc1cc2ncnn2cc1Nc1ncc2c(n1)n(C1CCOCC1)c(=O)n2C [AZD7648] (first compound max 1 µM, 7x7, partner max 10 µM)",0.385,1,0.995,0.465,0.441,0.833,0.614,0.92,0.803,0.36,0.362,1,0.555,0.816,1,0.477,0.966,0.75,0.777,0.358
"COc1cccc(OCCCN)c1-c1cc(Nc2cnc(C#N)cn2)n[nH]1 [Prexasertib] + O=C(c1cc(Cc2n[nH]c(=O)c3ccccc23)ccc1F)N1CCN(C(=O)C2CC2)CC1 [Olaparib] (first compound max 1 µM, 7x7, partner max 10 µM)",0.387,1,0.999,0.469,0.383,0.834,0.614,0.912,0.923,0.253,0.408,1,0.424,0.801,1,0.412,0.98,0.797,0.555,0.43
"COc1cc2c(cc1OCCCCCOc1cc3c(cc1OC)C(=O)N1C=C(C)C[C@H]1C=N3)N=C[C@@H]1CC(C)=CN1C2=O [SG3199] + O=C(c1cc(Cc2n[nH]c(=O)c3ccccc23)ccc1F)N1CCN(C(=O)C2CC2)CC1 [Olaparib] (first compound max 0.001 µM, 7x7, partner max 10 µM)",0.0512,0.0468,0.165,0.027,0.175,0.12,0.204,0.503,0.878,0.0954,0.0887,0.554,0.079,0.137,0.101,0.0991,0.921,0.133,0.138,0.159
"CCc1c2c(nc3ccc(O)cc13)-c1cc3c(c(=O)n1C2)COC(=O)[C@]3(O)CC [SN-38] + CN(C)CCCOc1ccc(-c2ccc3ncc4c(c3c2)n(C2CCOCC2)c(=O)n4C)cn1 [AZD0156] (first compound max 0.3 µM, 7x7, partner max 1 µM)",0.406,1,0.77,0.0449,0.231,0.444,0.336,1,1,0.499,0.261,1,0.838,0.532,0.998,0.514,1,0.463,0.586,0.688
